Columns and labels:
Type in all cases: cell-based, mouse
[1] = test system: RAW 264.7 cells; experiment: RT-qPCR mRNA expression; settings: RAW 264.7, 3 μM
Method: (§1) Total RNA was extracted using the SV Total RNA Isolation kit (Promega) following the supplier's instructions. cDNA was synthesized from about 0.5 μg RNA using the First Strand cDNA Synthesis kit (Roche) as described by the supplier. The resulting cDNAs were subjected to quantitative PCR amplification with a real-time cycler using the QUANTITECT™ SYBR® Green PCR Kit (Qiagen, Hilden, Germany) for the genes Alpl, Fas, Lox, Tet1, Tet2, and TAQMAN® Gene expression Master Mix (Applied Biosystems, Foster City, Calif., USA) for measuring Runx2, Bglap2, Colla1, Tnfsf11, and 18S rRNA expression (for primers, see Table 1). SYBR-Green RT-qPCR was started with an initial denaturation step at 95° C. for 10 minutes and then continued with 45 cycles consisting of 30 seconds denaturation at 95° C., 30 seconds annealing at primer-specific temperatures, and extension at 72° C. For measurement of the TAQMAN® assays, an initial denaturation at 95° C. for 10 minutes was applied, followed by 45 cycles alternating 60 seconds at 60° C. and 15 seconds at 95° C. All RT-qPCR assays were performed in triplicate, and expression was evaluated using the comparative quantification method (Pfaffl, Nucleic Acids Res., 29:e45 (2001)).

[2] = test system: MLO-Y4 cells; experiment: RT-qPCR mRNA expression; settings: MLO-Y4, 3 μM
Method: as §1

[3] = test system: MC3T3-E1 cells; experiment: RT-qPCR mRNA expression; settings: MC3T3-E1, 3 μM; for mRNA expression of Bglap2, Colla1, Lox and Alpl: 14 days
Method: as §1

[4] = test system: RAW 264.7 cells; experiment: Caspase activity (CASPASE-GLO); settings: RAW 264.7, 3 μM, 24 hours
Method: (§2) Caspase 3/7 and caspase 8 activities were measured by using the CASPASE-GLO® 3/7 and CASPASE-GLO® 8 assay Kit (Promega, Madison, Wis., USA) following manufactures instructions. Briefly, after treatments, cells were lysed, and substrate cleavage by caspases was measured by the generated luminescent signal with a 96 multi-well luminometer (Glomax, Promega). Each experiment was performed in quintuplicate and experiments were carried out twice.

[5] = test system: MLO-Y4 cells; experiment: Caspase activity (CASPASE-GLO); settings: MLO-Y4, 3 μM, 24 hours
Method: as §2

[6] = test system: MC3T3-E1 cells; experiment: Caspase activity (CASPASE-GLO); settings: MC3T3-E1, 3 μM, 24 hours
Method: as §2

[7] = test system: MC3T3-E1 cells; experiment: ECM mineralization by Alizarin Red stain; settings: MC3T3-E1, long-term treatment in osteogenic media
Method: Differentiation of MC3T3-E1 cells was induced with 50 μg/mL ascorbic acid (Sigma-Aldrich) and 5 mM β-glycerophosphate (Sigma-Aldrich) in medium containing 5% FBS. RAW 264.7 cells were cultured in Dulbecco's modified Eagle's medium (DMEM, Invitrogen, Carlsbad, Calif., USA) supplemented with 10% fetal bovine serum (Hyclone) and 2 mM glutamine (Gibco, Carlsbad, Calif., USA). Cells were seeded in culture dishes at a density of 20,000 cells/cm^2 and cultured overnight unless stated otherwise. Before cells were treated with compounds, the culture medium was changed.
Calvariae from 2 to 3-day-old and from 7-week old C57BL/6 mice were dissected aseptically. The calvarial bone explants were cultured in 48-well plates in α-MEM (Biochrom) containing 10% FCS (Biochrom), 50 μg/mL ascorbic acid (Sigma-Aldrich), 5 mM β-glycerophosphate (Sigma-Aldrich), and 10 μg/mL gentamicin (Sigma-Aldrich). The day after dissection, medium was changed, and a part of the explants was treated with 3 μM L- or DL-SFN for 12 days. Thereafter, one part of the calvariae were fixed for 1 hour in 4% para-formaldehyde (PFA), and mineralization was measured by Alizarin Red S stain (Sigma-Aldrich). For this purpose, Alizarin Red S dye was extracted using 10% cetylpyridinium chloride (CPC) in 10 mM sodiumphosphate (pH=7.0) for 45 minutes at room temperature. Alizarin Red S absorbance was measured at 562 nm in a multi-plate reader (Tecan, Maennedorf, Switzerland) and normalized to total protein amount measured by bicinchoninic acid assay (Thermo Fisher Scientific, Waltham, Mass., USA). From the other part of the calvariae, total RNA was extracted.

[8] = test system: RAW 264.7 cells; experiment: Global cytosine 5-hydroxymethylation (5hmC); settings: RAW 264.7, 3 μM, 16 hours
Method: (§3) Cells were fixed with 4% paraformaldehyde in PBS for 20 minutes at room temperature and permeabilized with 0.2% triton in 4% paraformaldehyde in PBS. Thereafter, cell layers were blocked for 20 minutes with 10% blocking reagent (Roche) and incubated for one further hour with 0.5 μg/mL anti-5hmC antibody (Abgent). Afterwards, the cells were washed thrice with PBS and incubated for one further hour with an Alexa488 labeled secondary antibody (Invitrogen) diluted 1:300 in blocking buffer. Finally, nuclei were stained with Hoechst 33258 dye (Polysciences).
(§4) For immunostaining, cell slides were mounted with VECTASHIELD® mounting media, and immunofluorescence was visualized on a Leica laser-scanning microscope. No signal was found by using only the Alexa488 labeled secondary antibody (Invitrogen). For quantification of global cytosine 5hmC, the fluorescence in the plates was measured with a multiwell plate reader (Tecan). The amount of DNA (nuclei signal) was estimated using a standard curve prepared from calf thymus DNA (Roche). The signal of the fluorescence of the 5hmC staining was normalized to the amount of DNA. Also, in this case, no signals were found when only the Alexa488 labeled secondary antibody (Invitrogen) was used.

[9] = test system: MLO-Y4 cells; experiment: Global cytosine 5-hydroxymethylation (5hmC); settings: MLO-Y4, 3 μM, 16 hours
Method: as §3, §4

[10] = test system: MC3T3-E1 cells; experiment: Global cytosine 5-hydroxymethylation (5hmC); settings: MC3T3-E1, 3 μM, 16 hours
Method: as §3, §4

Question: Which results are given for `C[S+]([O-])CCCCN=C=S` (racemic) [DL-SFN]?
Answer: Tet1 mRNA levels ([1]; 8 and 16 hours, Tet2 not upregulated): upregulated; expression of the pro-apoptotic gene Fas ([1]; 8 hours): not at 8 hours; expression of the pro-apoptotic gene Fas ([1]; 16 hours): up-regulated; mRNA expression for Tet1 or Tet2 [2]: did not positively change; Tnfsf11 mRNA expression ([2]; 3 and 8 days, significant only at 8 days): reduced; Fas mRNA expression ([2]; 8 hours): not affected; Fas mRNA expression ([2]; 16 hours): significantly increased; Runx2 mRNA expression [3]: stimulates; Fas mRNA expression ([3]; 8 hours): not affected; Fas mRNA expression ([3]; 16 hours): significantly increased; mRNA expression of Bglap2, Colla1, Lox and Alpl [3]: increased; Caspase 8 and Caspase 3/7 activity [4]: stimulated; activities of the caspases 3/7 [5]: significant increase; activity of caspase 8 [5]: significantly increased; activities of the caspases 3/7 [6]: significant increase; activity of caspase 8 [6]: significantly increased; ECM mineralization [7]: significantly increased; increase of global levels of 5hmC [8]: ~3 fold; 5hmC levels [9]: did not elevate; global 5hmC [10]: significant global increase

Question: With `C[S+]([O-])CCCCN=C=S` [L-SFN] as the compound, how does the “expression of the pro-apoptotic gene Fas” value ([1]; 8 hours) read?
Answer: not at 8 hours

Question: What about the “expression of the pro-apoptotic gene Fas” value ([1]; 16 hours) of the same compound?
Answer: up-regulated

Question: And the “Fas mRNA expression” value ([2]; 8 hours)?
Answer: not affected

Question: What about the “Fas mRNA expression” value ([3]; 8 hours) of the same compound?
Answer: not affected

Question: What about the “mRNA expression of Bglap2, Colla1, Lox and Alpl” value [3] of the same compound?
Answer: increased

Question: And the “Caspase 8 and Caspase 3/7 activity” value [4]?
Answer: stimulated

Question: And the “activity of caspase 8” value [5]?
Answer: significantly increased

Question: What about the “activity of caspase 8” value [6] of the same compound?
Answer: significantly increased

Question: What about the ECM mineralization [7] of the same compound?
Answer: significantly increased

Question: What about the “increase of global levels of 5hmC” value [8] of the same compound?
Answer: < 2 fold

Question: What about the 5hmC levels [9] of the same compound?
Answer: did not elevate

Question: What about the “global 5hmC” value [10] of the same compound?
Answer: significant global increase

From US20180133211A1, “METHODS AND MATERIALS FOR PROMOTING BONE FORMATION” (Mayo Foundation for Medical Education and Research, priority 2015, published 2018)
